Experimental data taken from PubChem BioAssay AID248 (DTP/NCI, 2004).
Where “and” joins values, the source holds several entries; their conditions need not be identical. Equal entries are not always repeated. Toxic doses and inconclusive results are not listed.

System: L1210 leukemia ip in BDF1 mice, survival T/C
Experiment: NCI In Vivo Anticancer Drug Screen. Data for tumor model L1210 Leukemia (intraperitoneal) in B6D2F1 (BDF1) mice
Details: endpoint: mean survival time, higher = longer survival
Procedure, shortened: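 Read-out is survival time, reported as the treated-group measurement over the vehicle-control measurement.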

[1] = dose: 50.0 mg/kg/injection, schedule: Q04DX003 (ip), vehicle: water
[2] = dose: 100.0 mg/kg/injection, schedule: Q04DX003 (ip), vehicle: water

Question: How did the T/C (dose: 3.13 mg/kg/injection, schedule: Q01DX009 (ip), vehicle: Klucel (hydroxypropylcellulose) (HPC)) turn out when c1ccc(C[P+](c2ccccc2)(c2ccccc2)c2ccccc2)cc1 was run?
Answer: The T/C was 106 % of control.

Question: And the T/C (dose: 5.0 mg/kg/injection, schedule: Q01DX001 (ip), vehicle: saline with Tween-80)?
Answer: The T/C was 98 % of control.

Question: What about the T/C (dose: 5.0 mg/kg/injection, schedule: Q01DX001 (ip), vehicle: saline) of the same compound?
Answer: The T/C was 105 % of control.

Question: And the T/C (dose: 5.0 mg/kg/injection, schedule: Q01DX009 (ip), vehicle: saline with Tween-80)?
Answer: The T/C was 95 % of control.

Question: What about the T/C (dose: 6.25 mg/kg/injection, schedule: Q01DX009 (ip), vehicle: Klucel (hydroxypropylcellulose) (HPC)) of the same compound?
Answer: The T/C was 102 % of control and 95 % of control.

Question: And the T/C (dose: 10.0 mg/kg/injection, schedule: Q01DX001 (ip), vehicle: saline with Tween-80)?
Answer: Its T/C is 92 % of control.

Question: What about the T/C (dose: 10.0 mg/kg/injection, schedule: Q01DX001 (ip), vehicle: saline) of the same compound?
Answer: Its T/C is 100 % of control.

Question: And the T/C (dose: 10.0 mg/kg/injection, schedule: Q01DX009 (ip), vehicle: saline with Tween-80)?
Answer: The T/C was 87 % of control.

Question: And the T/C (dose: 12.5 mg/kg/injection, schedule: Q01DX009 (ip), vehicle: Klucel (hydroxypropylcellulose) (HPC))?
Answer: The T/C was 107 % of control and 96 % of control and 110 % of control.

Question: And the T/C (dose: 12.5 mg/kg/injection, schedule: Q04DX003 (ip), vehicle: Klucel (hydroxypropylcellulose) (HPC))?
Answer: Its T/C is 102 % of control.

Question: What about the T/C (dose: 20.0 mg/kg/injection, schedule: Q01DX001 (ip), vehicle: saline with Tween-80) of the same compound?
Answer: Its T/C is 90 % of control.

Question: What about the T/C (dose: 20.0 mg/kg/injection, schedule: Q01DX001 (ip), vehicle: saline) of the same compound?
Answer: Its T/C is 96 % of control.

Question: What about the T/C (dose: 25.0 mg/kg/injection, schedule: Q01DX009 (ip), vehicle: Klucel (hydroxypropylcellulose) (HPC)) of the same compound?
Answer: Its T/C is 89 % of control.

Question: And the T/C (dose: 25.0 mg/kg/injection, schedule: Q04DX003 (ip), vehicle: Klucel (hydroxypropylcellulose) (HPC))?
Answer: The T/C was 102 % of control.

Question: And the T/C (dose: 40.0 mg/kg/injection, schedule: Q01DX001 (ip), vehicle: saline)?
Answer: Its T/C is 105 % of control.

Question: With O=C(NCCNCc1ccccc1)c1ccccc1 as the compound, how does the T/C (dose: 25.0 mg/kg/injection, schedule: Q01DX009 (ip), vehicle: water) read?
Answer: Its T/C is 97 % of control.

Question: And the T/C (dose: 25.0 mg/kg/injection, schedule: Q04DX003 (ip), vehicle: water)?
Answer: The T/C was 96 % of control.

Question: What about the T/C (dose: 50.0 mg/kg/injection, schedule: Q01DX009 (ip), vehicle: water) of the same compound?
Answer: The T/C was 98 % of control.

Question: And the T/C [1]?
Answer: Its T/C is 107 % of control.

Question: And the T/C (dose: 100.0 mg/kg/injection, schedule: Q04DX003 (ip), vehicle: saline with Tween-80)?
Answer: Its T/C is 108 % of control.

Question: What about the T/C [2] of the same compound?
Answer: The T/C was 92 % of control.

Question: With CCC(=O)OCC1OC(n2cnc3c(=S)nc(N)[nH]c32)C(OC(=O)CC)C1OC(=O)CC (stereo unspecified) as the compound, how does the T/C (dose: 0.8 mg/kg/injection, schedule: Q01DX Z (ip), vehicle: carboxymethylcellulose (CMC)) read?
Answer: The T/C was 106 % of control.

Question: What about the T/C (dose: 1.3 mg/kg/injection, schedule: Q01DX Z (ip), vehicle: carboxymethylcellulose (CMC)) of the same compound?
Answer: Its T/C is 110 % of control.

Question: What about the T/C (dose: 2.0 mg/kg/injection, schedule: Q01DX Z (ip), vehicle: carboxymethylcellulose (CMC)) of the same compound?
Answer: Its T/C is 120 % of control.

Question: And the T/C (dose: 8.0 mg/kg/injection, schedule: Q01DX Z (ip), vehicle: carboxymethylcellulose (CMC))?
Answer: The T/C was 169 % of control.

Question: And the T/C (dose: 12.0 mg/kg/injection, schedule: Q01DX Z (ip), vehicle: carboxymethylcellulose (CMC))?
Answer: Its T/C is 151 % of control and 154 % of control.

Question: And the T/C (dose: 18.0 mg/kg/injection, schedule: Q01DX Z (ip), vehicle: carboxymethylcellulose (CMC))?
Answer: Its T/C is 101 % of control.

Question: What about the T/C (dose: 27.0 mg/kg/injection, schedule: Q01DX Z (ip), vehicle: carboxymethylcellulose (CMC)) of the same compound?
Answer: Its T/C is 156 % of control.

Question: What about the T/C (dose: 40.0 mg/kg/injection, schedule: Q01DX Z (ip), vehicle: carboxymethylcellulose (CMC)) of the same compound?
Answer: Its T/C is 151 % of control.

Question: COc1ccc(C)cc1NC(=S)NC(=O)c1cccc2ccccc12 was tested. Which T/C (dose: 50.0 mg/kg/injection, schedule: Q01DX009 (ip), vehicle: Klucel (hydroxypropylcellulose) (HPC)) did it give?
Answer: Its T/C is 93 % of control.

Question: What about the T/C (dose: 100.0 mg/kg/injection, schedule: Q01DX009 (ip), vehicle: Klucel (hydroxypropylcellulose) (HPC)) of the same compound?
Answer: Its T/C is 87 % of control.

Question: And the T/C (dose: 100.0 mg/kg/injection, schedule: Q04DX003 (ip), vehicle: Klucel (hydroxypropylcellulose) (HPC))?
Answer: The T/C was 95 % of control.

Question: What about the T/C (dose: 200.0 mg/kg/injection, schedule: Q01DX009 (ip), vehicle: Klucel (hydroxypropylcellulose) (HPC)) of the same compound?
Answer: The T/C was 88 % of control.

Question: What about the T/C (dose: 200.0 mg/kg/injection, schedule: Q04DX003 (ip), vehicle: Klucel (hydroxypropylcellulose) (HPC)) of the same compound?
Answer: Its T/C is 94 % of control.

Question: What about the T/C (dose: 300.0 mg/kg/injection, schedule: Q01DX009 (ip), vehicle: Klucel (hydroxypropylcellulose) (HPC)) of the same compound?
Answer: The T/C was 104 % of control and 87 % of control.

Question: How did the T/C (dose: 100.0 mg/kg/injection, schedule: Q01DX009 (ip), vehicle: saline with Tween-80) turn out when CCOC(CCc1c(-c2ccc([N+](=O)[O-])cc2)nc(N)[nH]c1=O)OCC was run?
Answer: Its T/C is 95 % of control.

Question: What about the T/C (dose: 200.0 mg/kg/injection, schedule: Q01DX009 (ip), vehicle: saline with Tween-80) of the same compound?
Answer: Its T/C is 111 % of control.

Question: What about the T/C (dose: 400.0 mg/kg/injection, schedule: Q01DX009 (ip), vehicle: saline with Tween-80) of the same compound?
Answer: The T/C was 95 % of control.

Question: COCCN(CCOC)/N=N/c1nc[nH]c1C(N)=O was tested. Which T/C (dose: 50.0 mg/kg/injection, schedule: Q01DX001 (ip), vehicle: water) did it give?
Answer: Its T/C is 104 % of control.

Question: And the T/C [1]?
Answer: Its T/C is 98 % of control.

Question: What about the T/C (dose: 100.0 mg/kg/injection, schedule: Q01DX001 (ip), vehicle: water) of the same compound?
Answer: Its T/C is 102 % of control.

Question: And the T/C [2]?
Answer: The T/C was 107 % of control.

Question: What about the T/C (dose: 200.0 mg/kg/injection, schedule: Q01DX001 (ip), vehicle: water) of the same compound?
Answer: Its T/C is 101 % of control.

Question: What about the T/C (dose: 200.0 mg/kg/injection, schedule: Q04DX003 (ip), vehicle: water) of the same compound?
Answer: The T/C was 100 % of control.

Question: What about the T/C (dose: 400.0 mg/kg/injection, schedule: Q01DX001 (ip), vehicle: water) of the same compound?
Answer: Its T/C is 102 % of control.

Question: And the T/C (dose: 400.0 mg/kg/injection, schedule: Q04DX003 (ip), vehicle: water)?
Answer: The T/C was 111 % of control.
